For 21 compounds, IC50 results are on record in patent US20260224582A1, “Heterobicyclic amides as inhibitors of CD38” (Cerevance, Inc., priority 2022, published 2026).

What is called IC50 is the midpoint of a concentration-inhibition curve.

For experiment [1], the target named is T1, Recombinant human CD38 (Homo sapiens, UniProt P28907).
T1 sequence (P28907 1-300): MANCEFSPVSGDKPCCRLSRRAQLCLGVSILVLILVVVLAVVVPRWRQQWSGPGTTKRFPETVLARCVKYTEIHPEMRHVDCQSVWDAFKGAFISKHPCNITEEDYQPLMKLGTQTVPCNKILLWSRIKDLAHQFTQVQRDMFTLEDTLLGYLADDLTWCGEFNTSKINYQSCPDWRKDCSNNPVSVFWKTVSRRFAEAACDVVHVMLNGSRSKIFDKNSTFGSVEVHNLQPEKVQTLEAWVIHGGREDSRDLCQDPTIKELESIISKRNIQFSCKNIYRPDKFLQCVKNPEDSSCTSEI
In words: Human CD38 hydrolase assay (fluorescence-based, ε-NAD substrate). The experiment is classed as biochemical. Particulars: recombinant human CD38 0.8 nM, 4 μM ε-NAD, 30 min preincubation at 25° C. On the procedure:
The ability of test compounds to inhibit human CD38 hydrolase activity was measured in a fluorescence-based assay using non-physiological NAD^+ substrate analogue 1,N^6-etheno NAD^+ (ε-NAD). Recombinant human CD38 (0.8 nM) was preincubated with test compounds in 384-well black microplates for 30 min at 25° C. in PBS (—Ca^2+/Mg^2+) containing 0.005% BSA (pH 7.4). CD38 hydrolase activity was initiated by addition of 4 μM ε-NAD, which yields the fluorescent product 1,N^6-etheno ADP-ribose. Formation of fluorescent product was followed using ClarioStar Plus (BMG) microplate reader by reading fluorescence (excitation λ=300 nm; emission λ=410 nm) at two time points, one immediately after substrate addition (t=0) and one at 10 min (t=10). Data was analysed by subtracting the values detected at t=0 from t=10 to correct for variation in baseline fluorescence. Fluorescence values were converted to percent inhibition using the average of high signal (CD38 and ε-NAD) and low signal (CD38 and ε-NAD in the presence of a tool CD38 inhibitor) control wells. IC50 values were determined from a 10-point, half log concentration response curve with a four-parameter logistic equation.

The target in experiment [2] is T2, Recombinant mouse CD38 (Mus musculus, UniProt P56528).
T2 sequence (P56528 1-304): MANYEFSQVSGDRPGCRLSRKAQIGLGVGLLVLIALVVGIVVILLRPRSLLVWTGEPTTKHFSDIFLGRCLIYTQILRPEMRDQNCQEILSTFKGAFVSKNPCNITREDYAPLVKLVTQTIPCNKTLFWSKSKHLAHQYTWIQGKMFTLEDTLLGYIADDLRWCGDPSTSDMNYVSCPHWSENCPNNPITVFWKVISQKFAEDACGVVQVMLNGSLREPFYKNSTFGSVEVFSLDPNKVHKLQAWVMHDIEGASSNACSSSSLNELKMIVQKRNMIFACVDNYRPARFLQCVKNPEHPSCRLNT
The experiment can be described thus: Mouse CD38 hydrolase assay (fluorescence-based, ε-NAD substrate). It is filed as biochemical. Particulars: recombinant mouse CD38 0.4 nM, 12 μM ε-NAD, 30 min preincubation at 25° C. How it is done:
The ability of test compounds to inhibit mouse CD38 hydrolase activity was measured in a fluorescence-based assay using non-physiological NAD^+ substrate analogue 1,N^6-etheno NAD^+ (&-NAD). Recombinant mouse CD38 (0.4 nM) was preincubated with test compounds in 384-well black microplates for 30 min at 25° C. in PBS (—Ca^2+/Mg^2+) containing 0.005% BSA (pH 7.4). CD38 hydrolase activity was initiated by addition of 12 μM ε-NAD, which yields the fluorescent product 1,N^6-etheno ADP-ribose. Formation of fluorescent product was followed using ClarioStar Plus (BMG) microplate reader by reading fluorescence (excitation λ=300 nm; emission λ=410 nm) at two time points, one immediately after substrate addition (t=0) and one at 6 min (t=6).
Data was analysed by subtracting the values detected at t=0 from t=6 to correct for variation in baseline fluorescence. Fluorescence values were converted to percent inhibition using the average of high signal (CD38 and ε-NAD) and low signal (CD38 and ε-NAD in the presence of a tool CD38 inhibitor) control wells. IC50 values were determined from a 10-point, halflog concentration response curve with a four-parameter logistic equation.

A value given as a limit tells only on which side of the number the result lay.

As to `O=C(N[C@H]1CC[C@H](N2CC[C@@H](F)C2)CC1)c1cn2ncnc2c(-n2ccnc2)n1` [Example 26, N-((1R,4r)-4-((R)-3-fluoropyrrolidin-1-yl)cyclohexyl)-8-(1H-imidazol-1-yl)-[1,2,4]triazolo[1,5-a]pyrazine-6-carboxamide], the IC50 in experiment [1] is no more than 100 nM; in experiment [2], no more than 40 nM.
For `O=C(N[C@H]1CC[C@H](N2CC[C@@H](O)C2)CC1)c1nc(-n2ccnc2)nn2cccc12` [Example 27, N-((1R,4r)-4-((R)-3-hydroxypyrrolidin-1-yl)cyclohexyl)-2-(1H-imidazol-1-yl)pyrrolo[2,1-f][1,2,4]triazine-4-carboxamide], in that order: no more than 40 nM and no more than 40 nM.
With `O=C(N[C@H]1CC[C@H](N2CC[C@@H](F)C2)CC1)c1nc(-n2ccnc2)c2cccn2n1` [Example 28, N-((1R,4r)-4-((R)-3-fluoropyrrolidin-1-yl)cyclohexyl)-4-(1H-imidazol-1-yl)pyrrolo[2,1-f][1,2,4]triazine-2-carboxamide], the IC50 is no more than 10000 nM in experiment [1] and no more than 40 nM in experiment [2].
Regarding `O=C(N[C@H]1CC[C@H](NCC(F)(F)F)CC1)c1nc(-c2cncs2)nn2cccc12` [Example 30, 2-(thiazol-5-yl)-N-((1r,4r)-4-((2,2,2-trifluoroethyl)amino)cyclohexyl)pyrrolo[2,1-f][1,2,4]triazine-4-carboxamide], the 50% inhibitory concentration (IC50) in experiment [1] was no more than 100 nM; in experiment [2] it was no more than 40 nM.
`O=C(N[C@H]1CC[C@H](NCC(F)F)CC1)c1nc(-n2ccnc2)nn2cccc12` [Example 31, N-((1r,4r)-4-((2,2-difluoroethyl)amino)cyclohexyl)-2-(1H-imidazol-1-yl)pyrrolo[2,1-f][1,2,4]triazine-4-carboxamide]: the concentration for half-maximal inhibition (IC50) in experiment [1] and in experiment [2] was no more than 40 nM each time.
In the case of `O=C(N[C@H]1CC[C@H](N2CC[C@H](F)C2)CC1)c1nc(-n2ccnc2)nc2ncccc12` [Example 32, N-((1S,4r)-4-((S)-3-fluoropyrrolidin-1-yl)cyclohexyl)-2-(1H-imidazol-1-yl)pyrido[2,3-d]pyrimidine-4-carboxamide], the IC50 in experiment [1] was no more than 100 nM; in experiment [2], no more than 40 nM.
For `O=C(N[C@H]1CC[C@H](N2CC[C@@H](F)C2)CC1)c1cn2nccc2c(-n2ccnc2)n1` [Example 35, N-((1R,4r)-4-((R)-3-fluoropyrrolidin-1-yl)cyclohexyl)-4-(1H-imidazol-1-yl)pyrazolo[1,5-a]pyrazine-6-carboxamide], the IC50 in experiment [1] was no more than 100 nM; in experiment [2], no more than 40 nM.
For `O=C(N[C@H]1CC[C@H](N2CC[C@H](F)C2)CC1)c1cn2nccc2c(-n2ccnc2)n1` [Example 36, N-((1S,4r)-4-((S)-3-fluoropyrrolidin-1-yl)cyclohexyl)-4-(1H-imidazol-1-yl)pyrazolo[1,5-a]pyrazine-6-carboxamide], in that order: no more than 100 nM and no more than 40 nM.
For `O=C(N[C@H]1CC[C@H](NCC(F)F)CC1)c1cn2nccc2c(-n2ccnc2)n1` [Example 37, N-((1r,4r)-4-((2,2-difluoroethyl)amino)cyclohexyl)-4-(1H-imidazol-1-yl)pyrazolo[1,5-a]pyrazine-6-carboxamide], in that order: no more than 100 nM and no more than 40 nM.
For `O=C(N[C@H]1CC[C@H](NCC(F)F)CC1)c1cn2ccnc2c(-n2ccnc2)n1` [Example 38, N-((1r,4r)-4-((2,2-difluoroethyl)amino)cyclohexyl)-8-(1H-imidazol-1-yl) imidazo[1,2-a]pyrazine-6-carboxamide], in that order: no more than 1000 nM and no more than 40 nM.
On to `O=C(N[C@H]1CC[C@H](N2CC[C@@H](F)C2)CC1)c1cn2ccnc2c(-n2ccnc2)n1` [Example 39, N-((1R,4r)-4-((R)-3-fluoropyrrolidin-1-yl)cyclohexyl)-8-(1H-imidazol-1-yl) imidazo[1,2-a]pyrazine-6-carboxamide], for which the IC50 was no more than 100 nM in experiment [1] and no more than 40 nM in experiment [2].
With `O=C(N[C@H]1CC[C@H](N2CC[C@H](F)C2)CC1)c1cn2ccnc2c(-n2ccnc2)n1` [Example 40, N-((1S,4r)-4-((S)-3-fluoropyrrolidin-1-yl)cyclohexyl)-8-(1H-imidazol-1-yl) imidazo[1,2-a]pyrazine-6-carboxamide], the values for the 50% inhibitory concentration (IC50) in experiment [1] and in experiment [2] were no more than 1000 nM and no more than 40 nM, respectively.
In the case of `Cc1cncn1-c1nc(C(=O)N[C@H]2CC[C@H](NCC(F)(F)F)CC2)c2cccn2n1` [Example 42, 2-(5-methyl-1H-imidazol-1-yl)-N-((1r,4r)-4-((2,2,2-trifluoroethyl)amino)cyclohexyl)pyrrolo[2,1-f][1,2,4]triazine-4-carboxamide], the half-maximal inhibitory concentration (IC50) in experiment [1] and in experiment [2] was no more than 40 nM each time.
As for `O=C(N[C@H]1CC[C@@H](N2CCCC2)CC1)c1nc(-n2ccnc2)nn2cccc12` [Example 44, 2-(1H-imidazol-1-yl)-N-((1s,4s)-4-(pyrrolidin-1-yl)cyclohexyl)pyrrolo[2,1-f][1,2,4]triazine-4-carboxamide], the IC50 in experiment [1] is no more than 1000 nM; in experiment [2], no more than 40 nM.
For `CC1(F)CN([C@H]2CC[C@H](NC(=O)c3cn4ncnc4c(-n4ccnc4)n3)CC2)C1` [Example 46, N-((1r,4r)-4-(3-fluoro-3-methylazetidin-1-yl)cyclohexyl)-8-(1H-imidazol-1-yl)-[1,2,4]triazolo[1,5-a]pyrazine-6-carboxamide], the values for the half-maximal inhibitory concentration (IC50) in experiment [1] and in experiment [2] were no more than 100 nM and no more than 40 nM, respectively.
As for `CN(CC(F)(F)F)[C@H]1CC[C@H](NC(=O)c2cn3ncnc3c(-n3ccnc3)n2)CC1` [Example 47, 8-(1H-imidazol-1-yl)-N-((1r,4r)-4-(methyl (2,2,2-trifluoroethyl)amino)cyclohexyl)-[1,2,4]triazolo[1,5-a]pyrazine-6-carboxamide], the values for the half-inhibitory concentration (IC50) in experiment [1] and in experiment [2] were no more than 100 nM and no more than 40 nM, respectively.
Regarding `O=C(NC1CCN(CC(F)(F)F)CC1)c1cn2ncnc2c(-n2ccnc2)n1` [Example 50, 8-(1H-imidazol-1-yl)-N-(1-(2,2,2-trifluoroethyl)piperidin-4-yl)-[1,2,4]triazolo[1,5-a]pyrazine-6-carboxamide], the half-inhibitory concentration (IC50) is no more than 1000 nM in experiment [1] and no more than 100 nM in experiment [2].
Consider `O=C(N[C@H]1CC[C@H](N2CCS(=O)(=O)CC2)CC1)c1cn2ncnc2c(-n2ccnc2)n1` [Example 51, N-((1r,4r)-4-(1,1-dioxidothiomorpholino)cyclohexyl)-8-(1H-imidazol-1-yl)-[1,2,4]triazolo[1,5-a]pyrazine-6-carboxamide], for which the IC50 in experiment [1] was no more than 1000 nM; in experiment [2], no more than 40 nM.
For `O=C(N[C@H]1CC[C@H](NCC(F)F)CC1)c1cn2ncnc2c(-n2ccnc2)n1` [Example 52, N-((1r,4r)-4-((2,2-difluoroethyl)amino)cyclohexyl)-8-(1H-imidazol-1-yl)-[1,2,4]triazolo[1,5-a]pyrazine-6-carboxamide], in that order: no more than 100 nM and no more than 40 nM.
On to `CC(C)(N[C@H]1CC[C@H](NC(=O)c2cn3ncnc3c(-n3ccnc3)n2)CC1)C(F)(F)F` [Example 53, 8-(1H-imidazol-1-yl)-N-((1r,4r)-4-((1,1,1-trifluoro-2-methylpropan-2-yl)amino)cyclohexyl)-[1,2,4]triazolo[1,5-a]pyrazine-6-carboxamide], for which the concentration for half-maximal inhibition (IC50) is no more than 1000 nM in experiment [1] and no more than 40 nM in experiment [2].
For `CO[C@@H]1CCN([C@H]2CC[C@@H](NC(=O)c3cn4ncnc4c(-n4ccnc4)n3)CC2)C1` [Example 54, 8-(1H-imidazol-1-yl)-N-((1S,4s)-4-((R)-3-methoxypyrrolidin-1-yl)cyclohexyl)-[1,2,4]triazolo[1,5-a]pyrazine-6-carboxamide], in that order: no more than 1000 nM and no more than 40 nM.
